Data taken from paper PMC7689490, “Designed CXCR4 mimic acts as a soluble chemokine receptor that blocks atherogenic inflammation by agonist-specific targeting” (Nature Communications, 2020).
Several values for one entry are separate records, joined by “and”; a condition that tells them apart may be missing. Equal entries are not always repeated.

Assays:
[1] = test system: human monocyte-derived macrophages; assay: LDLR and CXCR4 cell surface levels in macrophages (flow cytometry, Reviewer-only Figure 4); format: cell-based
Procedure: crosstalk, or might even imply that CXCR4 and LDLR colocalize/complex and are subjected to a joint internalization event.
We feel that these studies warrant further in-depth (and mechanistic) exploration, which are […]
in the manuscript. We have therefore prepared them as Reviewer-only Figure 4 below.
Supplementary part of the manuscript, we are happy to do so. […]
expression and endocytosis in human monocyte-derived macrophages. LDLR and CXCR4 cell surface levels were measured by flow cytometry. Experiments were performed in the presence of LDL and the […]
containing 100µg/mL penicillin, 100 µg/mL streptomycin, and 0.2% BSA) for 15 min at 37°C and subsequently exposed to LDL (25 µg/mL) for 15 min. After washing with PBS, cells were collected and incubated with anti-hLDLR-APC (1:100, R&D Systems, FAB2148A) and anti-CXCR4-PE (1:100, R&D Systems, FAB170P) at 4°C for 1 h. MIF stimulation enhances LDL-triggered internalization of LDLR and […]
The data shown are from one of two experiments
MIF dependent adhesion can be blocked, it is unclear whether MIF dependent adhesion to TNF-activated (since this stimulus seems relevant in in vivo settings) endothelial cells can be […]
Response: Thank you for this important point. […]
experiment and now include static adhesion data using TNF-primed endothelial cells in the […]

MonoMac-6 / HAoEC = assay: MIF-induced static adhesion of MonoMac-6 monocytes to HAoECs; format: cell-based, human
Procedure: HAoECs were seeded at a density of 30,000 cells/well in 6 well µ-Ibidi Perfusion slides VI 0.4 (Ibidi GmbH). […] After perfusion of the chambers with fresh medium, MonoMac6 cells (1 × 10^6 cells mL^−1) in PromoCell medium were added for 30 min. Non-adhering cells were flushed away by gentle perfusion using a 30 mL syringe. To quantify adherent monocytes, seven individual images (technical triplicates each) from each treatment were acquired using a Leica DMi8 inverted microscope with a ×10 objective and cells quantified using ImageJ.

in vivo = conditions: C57BL/6, mouse, ip, 50 ug per mouse
Procedure: Plasma was immediately separated by centrifugation at 3000 rpm for 10 min at 4 °C, and placed on ice protected from light. Plasma aliquots were diluted (1:1) with SDS-PAGE sample buffer, boiled, analyzed in 10–20% Tricine SDS-PAGE gels, and red fluorescent bands imaged by Odyssey® Fc imager.

With CC[C@H](C)[C@H](NC(=O)[C@H](Cc1ccc(O)cc1)NC(=O)[C@H](CCCNC(=N)N)NC(=O)[C@H](CC(=O)O)NC(=O)CCCCCCCCCCCNC(=O)CCCCCNC(=O)[C@H](CCCCN)NC(=O)[C@H](CS)NC(=O)[C@H](CC(C)C)NC(=O)[C@H](Cc1ccccc1)NC(=O)[C@H](CC(N)=O)NC(=O)CNC(=O)[C@H](Cc1ccccc1)NC(=O)[C@H](Cc1ccc(O)cc1)NC(=O)[C@H](Cc1c[nH]c2ccccc12)NC(=O)[C@H](CC(N)=O)NC(=O)[C@H](C)NC(=O)[C@@H](NC(=O)[C@H](C)NC(=O)[C@@H](N)CC(=O)O)C(C)C)C(=O)N[C@@H](CS)C(=O)N[C@@H](CC(=O)O)C(=O)N[C@@H](CCCNC(=N)N)C(=O)N[C@@H](Cc1ccccc1)C(=O)N[C@@H](Cc1ccc(O)cc1)C(=O)N1CCC[C@H]1C(=O)N[C@@H](CC(N)=O)C(=O)N[C@@H](CC(=O)O)C(=O)N[C@@H](CC(C)C)C(=O)N[C@@H](Cc1c[nH]c2ccccc12)C(=O)N[C@H](C(N)=O)C(C)C [msR4M-L1, CXCR4-ECL1[97–110]-6-Ahx-12-Ado-ECL2[182–196]] as the molecule, how does the “LDLR cell surface level (Q3), MIF + msR4M-L1” value ([1]; 80 nM MIF, 400 nM msR4M-L1, LDL 25 µg/mL, without MIF 15.1%, MIF alone 8.99%, one of two experiments) read?
Its value is 12.6%.

What about the “CXCR4 cell surface level (Q3), MIF + msR4M-L1” value ([1]; as E143, without MIF 39%, MIF alone […]) of the same molecule?
The value was 48.7%.

And the “effect on MIF-induced static monocyte adhesion, TNF-α-prestimulated HAoECs” value (MonoMac-6 / HAoEC; 40 pM TNF-α pre-treatment, 320 nM msR4M-L1)?
The value was “abrogated the effect of MIF”.

And the “effect on MIF-induced static monocyte adhesion, resting HAoECs” value (MonoMac-6 / HAoEC; 16 nM MIF, 320 nM msR4M-L1, 16 h)?
Its value is “blocked the pro-adhesion effect of MIF”.

And the “Fig. 5a, MIF-induced monocyte adhesion” value (MonoMac-6 / HAoEC; MIF + msR4M-L1, individual replicates, n = 4)?
Its value is 56.3 and 56.9 and 61.4 and 42.3.

And the level at time molar (in vivo)?
Its level at time molar is 20 to 50 nM.
